Ki data for 10 molecules are collected here from BindingDB's records for doi:10.1021/jm021108n (Ghent University, 2003).

Molecules are shown by their SMILES.

The target of this test is Thymidylate kinase (Homo sapiens) (UniProt P23919). In words: In Vitro inhibition of […] (TMPKh).
One may read the Ki as a measure of affinity in units of concentration, obtained from inhibition or displacement. A higher Ki goes with lower affinity. Turning to `Cc1cn([C@H]2C[C@H](CO)[C@@H](CO)O2)c(=O)[nH]c1=O` [1-(4,5-Bis-hydroxymethyl-tetrahydro-furan-2-yl)-5-methyl-1H-pyrimidine-2,4-dione], the Ki worked out at 420 µM.

As to `Cc1cn([C@@H]2O[C@H](CO)[C@@H](CN)[C@H]2O)c(=O)[nH]c1=O` [1-(4-Aminomethyl-3-hydroxy-5-hydroxymethyl-tetrahydro-furan-2-yl)-5-methyl-1H-pyrimidine-2,4-dione], the inhibitory constant (Ki) is 110 µM.

Molecule `Cc1cn([C@H]2C[C@H](CN)[C@@H](CO)O2)c(=O)[nH]c1=O` [1-(4-Aminomethyl-5-hydroxymethyl-tetrahydro-furan-2-yl)-5-methyl-1H-pyrimidine-2,4-dione] came in with a Ki of 220 µM.

Turning to `Cc1cn([C@H]2C[C@H](CN=[N+]=[N-])[C@@H](CO)O2)c(=O)[nH]c1=O` [1-(4-Azidomethyl-5-hydroxymethyl-tetrahydro-furan-2-yl)-5-methyl-1H-pyrimidine-2,4-dione], affinity was put at a Ki of 1040 µM.

In turn, `Cc1cn([C@H]2C[C@H](CF)[C@@H](CO)O2)c(=O)[nH]c1=O` [1-(4-Fluoromethyl-5-hydroxymethyl-tetrahydro-furan-2-yl)-5-methyl-1H-pyrimidine-2,4-dione] had an inhibition constant (Ki) of 970 µM.

For `Cc1cn([C@@H]2O[C@H](COP(=O)(O)O)[C@@H](CN)[C@H]2O)c(=O)[nH]c1=O` [Phosphoric acid mono-[3-aminomethyl-4-hydroxy-5-(5-methyl-2,4-dioxo-3,4-dihydro-2H-pyrimidin-1-yl)-tetrahydro-furan-2-ylmethyl] ester], affinity was put at a Ki of 280 µM.

Molecule `Cc1cn([C@H]2C[C@H](CN)[C@@H](COP(=O)(O)O)O2)c(=O)[nH]c1=O` [Phosphoric acid mono-[3-aminomethyl-5-(5-methyl-2,4-dioxo-3,4-dihydro-2H-pyrimidin-1-yl)-tetrahydro-furan-2-ylmethyl] ester] gave a Ki of 4.7 µM.

`Cc1cn([C@H]2C[C@H](CN=[N+]=[N-])[C@@H](COP(=O)(O)O)O2)c(=O)[nH]c1=O` [Phosphoric acid mono-[3-azidomethyl-5-(5-methyl-2,4-dioxo-3,4-dihydro-2H-pyrimidin-1-yl)-tetrahydro-furan-2-ylmethyl] ester] gave a Ki of 32 µM. Compared with the last molecule, the Ki is about 6.8-fold higher.

Molecule `Cc1cn([C@H]2C[C@H](CF)[C@@H](COP(=O)(O)O)O2)c(=O)[nH]c1=O` [Phosphoric acid mono-[3-fluoromethyl-5-(5-methyl-2,4-dioxo-3,4-dihydro-2H-pyrimidin-1-yl)-tetrahydro-furan-2-ylmethyl] ester] came in with a Ki of 40 µM.

For `Cc1cn([C@H]2C[C@H](CO)[C@@H](COP(=O)(O)O)O2)c(=O)[nH]c1=O` [Phosphoric acid mono-[3-hydroxymethyl-5-(5-methyl-2,4-dioxo-3,4-dihydro-2H-pyrimidin-1-yl)-tetrahydro-furan-2-ylmethyl] ester], the inhibitory constant (Ki) turned out to be 43.5 µM.
